From patent US9770423B2, “Modulation sAPP, sAAPα and BDNF levels in individuals diagnosed with FXS and ASD” (Indiana University Research and Technology Corp., priority 2012, dated 2017)

Tested on: youth with autistic disorder (idiopathic ASD)
Test: 12-week single-blind placebo lead-in trial of acamprosate in youth with autistic disorder: behavioral outcome measures
Assay type: in vivo, human
Protocol: One study was a 12-week single-blind, placebo-controlled trial of acamprosate in 12 youths with autistic disorder was conducted. The primary outcome measured was the Clinical Global Impression Improvement (CGI-I) scale with several additional behavioral secondary outcome measures employed. In this study, secreted amyloid precursor protein (sAPP) was measured pre- and post acamprosate treatment as blood biomarker assay Result: Twelve subjects (mean age=10.4 yrs.) entered the study and nine subjects completed a two week placebo lead-in and entered active treatment (mean final dose=1,073 mg/day). Six of nine (67%) subjects receiving acamprosate were judged treatment responders with a CGI-I score of 1 “very much improved” or 2 “much improved”. […] Among secondary outcome measures analyzed, significant acamprosate-associated improvement was noted on measures of social behavior and hyperactivity. Acamprosate use was also associated with reductions in sAPP levels.
The first project enrolled 12 youth aged 5 to 17 years with fragile X syndrome and comorbid ASD in a 10-week open-label trial of acamprosate. The second project enrolled 12 youth aged 5 to 17 years diagnosed with idiopathic ASD in a 12-week single-blind placebo lead-in study of acamprosate. In both projects, concomitant dosing of psychotropic drugs remained stable throughout study. In each project, pre- and post-acamprosate treatment plasma levels of sAPP total and sAPPα were obtained. All APP assay samples were collected, chilled, and walked within 2 hours of blood draw to the lab for analysis. Plasma sAPP total and sAPPα were determined in […] using the ELISA kit obtained from Immuno Biological Laboratories (IBL, Gumma, Japan). The ELISA kit is validated to measure levels of sAPPα in human samples and able to detect as low as 0.09 ng/ml of sAPPα in a typical sample, with only 0.3% cross-reactivity to sAPPβ. Levels of sAPP total and sAPPα in plasma were reported in nanograms per milliliter (ng/mL). Statistical analysis of pre- and post-acamprosate sAPP total and sAPPα levels were conducted using paired T-tests. Finally an exploratory post-hoc analysis of potential correlation between percent change in sAPP total or sAPPα and percent change in scores on the Aberrant Behavior Checklist Social Withdrawal/Lethargy subscale (ABC-SW) was conducted. The ABC-SW measures social impairment which is a core symptom domain of ASD. Post-hoc analysis was done with Spearman correlation calculations. All data was analyzed in IBM SPSS Version 20.
A 12-week single-blind, placebo-controlled trial of the effect of acamprosate in the treatment of 12 youths with autistic disorder aged 5 to 17 years was carried out. In order to pilot test use of acamprosate in youth with autism targeting core social impairment, was conducted. All subjects and their family members were blinded to treatment status. All subjects participated in a 2 week placebo-lead-in phase prior to 10 weeks of treatment with acamprosate. For this project, enteric coated commercially available 333 mg acamprosate pills were over-encapsulated and identical matching placebo manufactured for the project. Placebo-responders, defined by a Clinical Global Impressions Improvement scale (CGI-I) score of 1 “very much improved” or 2 “much improved” (ratings anchored to core social deficits) at week 2 were asked to exit the study. During active treatment with acamprosate, dosing was increased in 333 mg increments per week over the first six weeks of active treatment to a maximum dose of 1,332 mg/day (weight<5 60 kg) or 1,998 mg/day (weight>60 kg). During the final four weeks of active drug treatment, subjects were maintained on a stable highest tolerated (optimal) dose. The primary outcome measure was the clinician-rated CGI-I anchored to symptoms of social impairment. […]

CC(=O)NCCCS(=O)(=O)O.[Ca] [acamprosate, Calcium Acetylhomotaurine]
CGI-S at endpoint (autistic disorder, baseline 4.22+/-0.4, p=0.013): 3.7+/−0.5
ABC Lethargy/Social Withdrawal subscale (ABC-SW) at endpoint (autistic disorder, baseline 14.1+/-8.5, p=0.019): 10.0+/−8.4
ABC Hyperactivity subscale at endpoint (autistic disorder, baseline 25.4+/-12.6, p=0.005): 16.6+/−12.4
ADHD-RS at endpoint (autistic disorder, baseline 29.5+/-10.4, p=0.002): 20.75+/−9.7
SRS total raw score at endpoint (autistic disorder, baseline 107+/-28, p=0.002): 91.4+/−30
mean CGI-I at last visit (nine subjects, last observation carried forward): 2
treatment responders, number of subjects (of 9 youth with idiopathic ASD): 6
treatment responders (CGI-I score of 1 or 2) (six of nine subjects receiving acamprosate, autistic disorder, mean final dose 1,073 mg/day): 67%
